# Where two headings read alike, the source gives them in different places.
# Assays:
# [1] = molecular target: benzodiazepine receptor (benzodiazepine site on the GABAA receptor complex); assay: Benzodiazepine radioligand (3H-flunitrazepam) binding assay
# male Wistar rats = assay: Loss of the righting reflex (LRR) in rats; format: in vivo, rat; details: i.v. via tail vein, dose in the range of 10–100 mg/kg
# Experimental: The intrinsic efficacy of a compound was assessed by its ability to cause loss of the righting reflex (LRR) in rats, an effect associated with benzodiazepine full agonism.
# Method: Subjects for these studies were male Wistar rats, weighing approximately 250–350 grams. To assess loss of righting reflex (LRR), animals were placed in plastic restrainers and test compounds were administered i.v. via the tail vain. Subjects were immediately removed from the restrainer and the time to onset of loss of righting reflex was recorded. LRR was defined as the loss of an animal's ability to right itself when placed in a supine position. […] Compounds producing LRR were evaluated by three measures: 1) Time to onset of LRR (as described above) 2) Time to recover from LRR. An animal met this criteria when able to right itself three consecutive times after losing its righting reflex 3) Total recovery time. Total recovery was measured by the animal's ability to walk without ataxia as well as its ability to pull itself up three consecutive times when suspended from a horizontal wire. […] The therapeutically useful dosage range for administration to mammals is 0.01 to 5.0 mg/kg of body weight.
# [2] = read-out: Benzodiazepine receptor binding Ki, 3H-flunitrazepam, brain membrane homogenates, 90 minutes at 4° C., tissue species of the tabulated values not stated
SMILES,"Ki [1, 2] [nM]",loss of righting reflex (LRR) (male Wistar rats),Ki ([1]; compound used at 10 μM to define nonspecific binding) [nM]
CCCCOC(=O)CC[C@@H]1N=C(c2ccccn2)c2cc(Cl)ccc2NC1=O [Example 1-18],101 to 1000,,
O=C(CC[C@@H]1N=C(c2ccccc2F)c2cc(Cl)ccc2NC1=O)OCc1ccccc1 [Example 1-5],1 to 50,producing loss-of-righting,
CNC1=Nc2ccc(Br)cc2C(c2ccccc2F)=N[C@H]1CCC(=O)OC [Example 1b-10],1 to 50,producing loss-of-righting,
CC(C)COC(=O)CC[C@@H]1N=C(c2ccccn2)c2cc(Cl)ccc2NC1=O [Example 1-19],101 to 1000,,
COC(=O)CC[C@@H]1N=C(c2ccccc2F)c2cc(Cl)ccc2-n2c(CO)cnc21 [Example 1c-5],1 to 50,,
COC(=O)CCC[C@@H]1N=C(c2ccccc2F)c2cc(Cl)ccc2NC1=O [Example 1-8],1 to 50,,
COC(=O)CC[C@@H]1N=C(c2ccccc2F)c2cc(Cl)ccc2-n2cc(C)nc21 [Example 1c-3],1 to 50,producing loss-of-righting,
COC(=O)CC[C@@H]1N=C(c2ccccn2)c2cc(Cl)ccc2-n2c(CO)cnc21 [Example 1c-12],101 to 1000,,
COC(=O)CCC[C@@H]1N=C(c2ccccc2F)c2cc([N+](=O)[O-])ccc2NC1=O [Example 1-13],1 to 50,,
COC(=O)CC[C@@H]1N=C(c2ccccn2)c2cc(Cl)ccc2-n2c1nc(C)c2C [Example 1c-13],101 to 1000,,
COC(=O)CC[C@@H]1N=C(c2ccccc2F)c2cc(Cl)ccc2N=C1NCc1ccncc1 [Example 1b-5],> 1000,,
COC(=O)CC[C@@H]1N=C(c2ccccc2F)c2cc(Cl)ccc2-n2c1cnc2C (racemic) [Example 1c-18],1 to 50,producing loss-of-righting,
COC(=O)CC[C@@H]1N=C(c2ccccc2Cl)c2cc(Cl)ccc2NC1=O [Example 1-7],1 to 50,producing loss-of-righting,
COC(=O)CC[C@@H]1N=C(c2ccccc2F)c2cc(Cl)ccc2N=C1NCCc1ccncc1 [Example 1b-6],101 to 1000,,
"COC(=O)CC[C@@H]1N=C(c2ccccc2F)c2cc(Cl)ccc2NC1=O [Example 1-1, Methyl 3-[(3S)-7-chloro-5-(2-fluorophenyl)-2-oxo-2,3-dihydro-1H-1,4-benzodiazepin-3-yl]propanoate]",1 to 50,producing loss-of-righting,
COC(=O)CCNC1N=C(c2ccccc2Cl)c2cc(Cl)ccc2NC1=O (stereo not shown) [Example 1-27],1 to 50,,
CNC1=Nc2ccc(Cl)cc2C(c2ccccc2F)=N[C@H]1CCC(=O)OC [Example 1b-1],51 to 100,producing loss-of-righting,
COC(=O)CC[C@@H]1N=C(c2ccccc2F)c2cc(Cl)ccc2-n2cc(COC(C)(C)C)nc21 [Example 1c-19],1 to 50,,
COC(=O)CC[C@@H]1N=C(c2ccccc2F)c2cc(Cl)ccc2N(C)C1=O [Example 1-23],1 to 50,producing loss-of-righting,
COC(=O)CC[C@@H]1N=C(c2ccccn2)c2cc(Cl)ccc2-n2cc(C)nc21 [Example 1c-10],51 to 100,producing loss-of-righting,
COC(=O)CC[C@@H]1N=C(c2ccccn2)c2cc(Cl)ccc2NC1=O [Example 1-11],101 to 1000,producing loss-of-righting,
COC(=O)CC[C@@H]1N=C(c2ccccc2F)c2cc(Cl)ccc2NC1=O [Example 1-2],51 to 100,,
Cc1nnc2n1-c1ccc(Cl)cc1C(c1ccccc1F)=N[C@H]2CCC(=O)OCC(C)C [Example 1c-16],1 to 50,,
CCN(CC)CCN1C(=O)[C@H](CCC(=O)OC)N=C(c2ccccc2F)c2cc(Cl)ccc21 [Example 1-22],101 to 1000,,
COC(=O)CNC1N=C(c2ccccc2Cl)c2cc(Cl)ccc2NC1=O (stereo not shown) [Example 1-26],51 to 100,,
O=C(CC[C@@H]1N=C(c2ccccc2F)c2cc(Cl)ccc2NC1=O)OCc1ccccc1 [Example 1-6],101 to 1000,producing loss-of-righting,
COC(=O)CC[C@@H]1N=C(c2ccccc2F)c2cc(Cl)ccc2N=C1NCCO [Example 1b-9],101 to 1000,,

SMILES,"Ki [1, 2] [nM]",loss of righting reflex (LRR) (male Wistar rats),Ki ([1]; compound used at 10 μM to define nonspecific binding) [nM]
O=C(CC[C@@H]1N=C(c2ccccn2)c2cc(Cl)ccc2NC1=O)OCc1ccccc1 [Example 1-9],101 to 1000,producing loss-of-righting,
COC(=O)CC[C@@H]1N=C(c2ccccc2F)c2cc(Cl)ccc2-n2c(C)nnc21 [Example 1c-15],1 to 50,producing loss-of-righting,
CCCOC(=O)CC[C@@H]1N=C(c2ccccn2)c2cc(Cl)ccc2NC1=O [Example 1-14],101 to 1000,,
CCNC1=Nc2ccc(Cl)cc2C(c2ccccc2F)=N[C@H]1CCC(=O)OC [Example 1b-3],101 to 1000,,
COC(=O)CC[C@@H]1N=C(c2ccccn2)c2cc(Cl)ccc2-n2cc(CO)nc21 [Example 1c-11],101 to 1000,,
CCN(CC)CCN1C(=O)[C@H](CCC(=O)OCc2ccccc2)N=C(c2ccccc2F)c2cc(Cl)ccc21 [Example 1-25],51 to 100,,
COC(=O)CC[C@@H]1N=C(c2ccccc2F)c2cc(Cl)ccc2N=C1NCCc1c[nH]cn1 [Example 1b-8],101 to 1000,,
COC(=O)CC[C@H]1N=C(c2ccccc2F)c2cc(Cl)ccc2NC1=O [Example 1-4],101 to 1000,producing loss-of-righting,
CCCCOC(=O)CC[C@@H]1N=C(c2ccccc2F)c2cc(Cl)ccc2NC1=O [Example 1-17],101 to 1000,producing loss-of-righting,
COC(=O)CC[C@@H]1N=C(c2ccccc2F)c2cc(Cl)ccc2-n2cc(CO)nc21 [Example 1c-4],1 to 50,,
COC(=O)CC[C@@H]1N=C(c2ccccn2)c2cc(Cl)ccc2-n2ccnc21 [Example 1c-6],51 to 100,producing loss-of-righting,
CN1C(=O)[C@H](CC(=O)OCc2ccccc2)N=C(c2ccccc2F)c2cc(Cl)ccc21 [Example 1-24],51 to 100,,
COC(=O)CC[C@@H]1N=C(c2ccccc2F)c2cc(Cl)ccc2N=C1NCC(C)C [Example 1b-7],> 1000,,
COC(=O)CC[C@@H]1N=C(c2ccccc2Cl)c2cc(Cl)ccc2-n2c(C)nnc21 [Example 1c-14],1 to 50,producing loss-of-righting,
CC(C)OC(=O)CC[C@@H]1N=C(c2ccccc2F)c2cc(Cl)ccc2NC1=O [Example 1-21],1 to 50,,
COC(=O)CC[C@@H]1N=C(c2ccccn2)c2cc(Br)ccc2-n2cc(C)nc21 [Example 1c-9],1 to 50,,
COC(=O)CC[C@@H]1N=C(c2ccccc2F)c2cc(Cl)ccc2-n2cncc21 [Example 1c-17],101 to 1000,producing loss-of-righting,
CCOC(=O)C[C@@H]1N=C(c2ccccc2F)c2cc(Cl)ccc2NC1=O [Example 1-20],1 to 50,,
COC(=O)CC[C@@H]1N=C(c2ccccc2F)c2cc(Br)ccc2NC1=O [Example 1-3],1 to 50,producing loss-of-righting,
COC(=O)CC[C@@H]1N=C(c2ccccn2)c2cc(Br)ccc2NC1=O [Example 1-10],51 to 100,,
COC(=O)CC[C@@H]1N=C(c2ccccn2)c2cc(Cl)ccc2-n2c(C)cnc21 [Example 1c-7],51 to 100,producing loss-of-righting,
"COC(=O)CC[C@@H]1N=C(c2ccccn2)c2cc(Br)ccc2-n2c(C)cnc21 [Example 1c-8, Methyl 3-[(4S)-8-bromo-1-methyl-6-(2-pyridinyl)-4H-imidazo[1,2-a][1,4]benzodiazepin-4-yl]propanoate]",1 to 50,producing loss-of-righting,
"CN1C(=O)CN=C(c2ccccc2Cl)c2cc(Cl)ccc21 [2′-chlorodiazepam, reference compound]",,,0.5
COC(=O)CC[C@@H]1N=C(c2ccccc2F)c2cc(Cl)ccc2-n2ccnc21 [Example 1c-1],1 to 50,producing loss-of-righting,
COC(=O)CC[C@@H]1N=C(c2ccccc2F)c2cc(Cl)ccc2N=C1NCc1ccccc1 [Example 1b-4],101 to 1000,,
COC(=O)CC[C@H]1C(=O)Nc2ccc(Cl)cc2C(c2ccccc2F)=[N+]1[O-] [Example 1-31],51 to 100,,
CCOC(=O)CC[C@@H]1N=C(c2ccccn2)c2cc(Cl)ccc2NC1=O [Example 1-15],101 to 1000,,

# Source: US7160880B1, “Short-acting benzodiazepines” (CeNeS Limited, priority 1999, dated 2007)
